Publication PMC10793102 (Acta Pharmaceutica Sinica. B, 2023)
Like-named read-outs stand apart in the source and are kept apart here.

What was measured:
[1] = biological target: hRIPK3 (Homo sapiens, UniProt Q9Y572); experiment: In vitro RIPK3 kinase activity assay; assay type: biochemical
[2] = biological target: T1, hRIPK1 (Homo sapiens, UniProt Q13546); experiment: In vitro RIPK1 kinase activity assay; assay type: biochemical; conditions: Enzymatic IC50s RIPK1, hRIPK1 enzymatic assay
T1 sequence (Q13546 1-671): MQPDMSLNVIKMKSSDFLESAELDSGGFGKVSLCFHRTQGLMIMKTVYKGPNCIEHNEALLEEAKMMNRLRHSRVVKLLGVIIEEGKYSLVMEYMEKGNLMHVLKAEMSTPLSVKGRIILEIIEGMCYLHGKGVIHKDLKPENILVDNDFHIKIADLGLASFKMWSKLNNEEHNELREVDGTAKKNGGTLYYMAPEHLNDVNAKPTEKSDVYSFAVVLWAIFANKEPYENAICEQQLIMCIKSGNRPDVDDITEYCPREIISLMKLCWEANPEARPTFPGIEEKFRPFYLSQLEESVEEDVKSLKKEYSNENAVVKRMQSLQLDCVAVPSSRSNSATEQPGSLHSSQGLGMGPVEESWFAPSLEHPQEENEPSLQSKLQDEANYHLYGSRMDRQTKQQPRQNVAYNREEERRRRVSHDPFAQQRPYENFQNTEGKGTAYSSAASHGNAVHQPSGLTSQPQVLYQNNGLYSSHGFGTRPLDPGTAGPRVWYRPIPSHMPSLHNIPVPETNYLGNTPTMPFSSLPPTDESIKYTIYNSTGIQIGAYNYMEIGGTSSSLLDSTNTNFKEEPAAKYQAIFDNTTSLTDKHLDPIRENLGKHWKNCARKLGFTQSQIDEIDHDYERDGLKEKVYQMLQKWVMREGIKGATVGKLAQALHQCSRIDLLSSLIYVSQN

[3] = tested on: L929; experiment: Cell viability assay, protection from necroptosis in L929 cells; assay type: cell-based, mouse; conditions: Mus musculus, L929, 16 h
[4] = PK study in mice; assay type: in vivo; conditions: male, ICR, mouse, plasma
[5] = biological target: T2, CYP2C8 (Homo sapiens, UniProt P10632); experiment: CYP450 inhibition; assay type: in vitro ADME
T2 sequence (P10632 1-490): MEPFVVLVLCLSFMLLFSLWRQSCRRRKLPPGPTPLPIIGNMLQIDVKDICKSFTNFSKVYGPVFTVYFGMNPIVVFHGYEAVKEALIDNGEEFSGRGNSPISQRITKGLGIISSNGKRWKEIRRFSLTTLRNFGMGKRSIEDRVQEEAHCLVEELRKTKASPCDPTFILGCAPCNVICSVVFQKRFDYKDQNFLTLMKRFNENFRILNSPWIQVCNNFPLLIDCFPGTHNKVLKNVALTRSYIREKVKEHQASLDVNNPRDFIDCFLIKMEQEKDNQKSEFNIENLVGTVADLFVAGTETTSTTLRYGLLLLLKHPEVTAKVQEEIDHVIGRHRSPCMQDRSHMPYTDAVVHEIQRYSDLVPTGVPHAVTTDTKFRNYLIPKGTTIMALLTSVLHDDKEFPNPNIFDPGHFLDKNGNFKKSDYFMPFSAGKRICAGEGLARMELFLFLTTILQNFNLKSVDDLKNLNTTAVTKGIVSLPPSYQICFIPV

[6] = tested on: FADD−/− Jurkat; experiment: Cell viability assay, protection from necroptosis in FADD−/− Jurkat cells; assay type: cell-based; conditions: Homo sapiens, 16 h
[7] = tested on: phosphorylation of RIPK1, RIPK3 and MLKL; experiment: Western blotting of necroptotic signaling in L929 cells; assay type: cell-based, mouse
[8] = tested on: p-S345 MLKL; experiment: Pharmacodynamic study in SIRS mouse model, p-MLKL immunostaining; assay type: in vivo; conditions: 2 mpk, 8 h after TNFα (20 μg)
[9] = tested on: Ripk1K612R/K612R mice; assay type: in vivo, mouse; conditions: 10 or 20 mpk po QD, 40 days
[10] = tested on: SARS-CoV-2; assay type: cell-based; conditions: 5 μmol/L, 48 h, human lung organoids
[11] = tested on: p-S166 RIPK1; experiment: Pharmacodynamic study in SIRS mouse model, p-RIPK1 immunostaining; assay type: in vivo; conditions: 1 mpk, 8 h after TNFα (20 μg)
[12] = tested on: RA symptoms; experiment: RA mouse model induced by collagen antibodies and LPS; assay type: in vivo, BALB/c male mice; conditions: 15 or 30 mpk po daily, 8 days
[13] = biological target: TEL-TRKA fusion (Homo sapiens, UniProt P04629+P41212); experiment: Anti-proliferation in engineered Ba/F3 cells dependent on TEL-TRKA; assay type: cell-based; conditions: read-out: IC50 anti-proliferative effect, TEL-TRKA Ba/F3; 72 h
[14] = tested on: TNFα-induced systemic inflammatory response syndrome; experiment: TNFα-induced SIRS mouse model; assay type: in vivo, C57BL/6J male mice; conditions: TNFα 10 μg iv
[15] = tested on: RIPK1; assay type: cell-based, human
[16] = PK study in rats; assay type: in vivo; conditions: SD, rat, plasma
[17] = read-out: EC50 FADD−/− Jurkat T + S
[18] = read-out: EC50 FADD−/− Jurkat TNFα

Chain of hRIPK3 (Q9Y572 whole entry): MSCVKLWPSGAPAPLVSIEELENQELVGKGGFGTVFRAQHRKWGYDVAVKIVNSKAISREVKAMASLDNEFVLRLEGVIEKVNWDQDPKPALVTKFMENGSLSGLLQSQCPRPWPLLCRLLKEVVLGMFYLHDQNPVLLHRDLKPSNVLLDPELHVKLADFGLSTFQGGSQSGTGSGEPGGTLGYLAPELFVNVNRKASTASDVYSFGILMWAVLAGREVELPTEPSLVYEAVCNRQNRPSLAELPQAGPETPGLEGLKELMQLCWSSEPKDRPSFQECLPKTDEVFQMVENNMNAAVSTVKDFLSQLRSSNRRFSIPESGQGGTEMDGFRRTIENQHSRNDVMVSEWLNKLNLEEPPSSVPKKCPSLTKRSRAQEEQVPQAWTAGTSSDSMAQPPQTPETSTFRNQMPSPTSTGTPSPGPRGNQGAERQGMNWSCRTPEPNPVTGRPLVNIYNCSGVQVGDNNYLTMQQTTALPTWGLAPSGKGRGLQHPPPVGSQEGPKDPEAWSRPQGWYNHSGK
Chain of TEL-TRKA fusion (P04629 510-781 limits assumed, one chain of several): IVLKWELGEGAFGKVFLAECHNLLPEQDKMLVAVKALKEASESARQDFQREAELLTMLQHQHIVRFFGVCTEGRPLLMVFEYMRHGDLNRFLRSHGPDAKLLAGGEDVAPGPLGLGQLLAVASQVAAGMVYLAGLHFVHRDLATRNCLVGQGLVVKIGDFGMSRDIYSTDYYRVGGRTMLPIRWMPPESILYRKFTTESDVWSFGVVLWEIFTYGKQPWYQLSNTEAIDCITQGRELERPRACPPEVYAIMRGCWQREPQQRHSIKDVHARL

Cn1ncc(C(=O)NCc2ccc(-n3cnc4c(N)ncnc43)cc2)c1Cc1ccccc1 [compound 39, N-(4-(6-Amino-9H-purin-9-yl)benzyl)-5-benzyl-1-methyl-1H-pyrazole-4-carboxamide]
IC50 [1]: > 1000 nM
IC50 [2]: 9.5 nM
EC50 ([3]; read-out: EC50 L929 T + S): 3.6 nM
EC50 ([3]; read-out: EC50 L929 TNFα): 0.9 nM
AUC(0-inf) ([4]; iv, 1 mg/kg): 882 ng·h/mL
AUC(0-t) ([4]; iv, 1 mg/kg): 862 ng·h/mL
MRT inf ([4]; iv, 1 mg/kg): 2.08 h
Vd ([4]; iv, 1 mg/kg): 2.35 L/kg
clearance ([4]; iv, 1 mg/kg): 18.3 mL/min/kg
half-life ([4]; iv, 1 mg/kg): 0.81 h
AUC(0-inf) ([4]; po, 10 mg/kg): 2210 ng·h/mL
AUC(0-t) ([4]; po, 10 mg/kg): 2190 ng·h/mL
Cmax ([4]; po, 10 mg/kg): 1340 ng/mL
MRT inf ([4]; po, 10 mg/kg): 2.55 h
Tmax ([4]; po, 10 mg/kg): 0.33 h
bioavailability ([4]; po, 10 mg/kg): 25.4%
half-life ([4]; po, 10 mg/kg): 1.34 h
inhibition of CYP2C8 (in words) [5]: weakly inhibited CYP2C8
EC50 [6, 17]: 1 nM
EC50 [6, 18]: 0.04 nM

Cn1nnc(C(=O)NCc2ccc(-n3cnc4c(N)ncnc43)cc2)c1Cc1ccccc1 [compound 49, N-(4-(6-Amino-9H-purin-9-yl)benzyl)-5-benzyl-1-methyl-1H-1,2,3-triazole-4-carboxamide]
IC50 [1]: > 1000 nM
IC50 [2]: ~6 nM
EC50 ([3]; read-out: EC50 L929 T + S): 0.06 nM
EC50 ([3]; read-out: EC50 L929 TNFα): 0.03 nM
AUC(0-inf) ([4]; iv, 1 mg/kg): 1420 ng·h/mL
AUC(0-t) ([4]; iv, 1 mg/kg): 1240 ng·h/mL
MRT inf ([4]; iv, 1 mg/kg): 10.5 h
Vd ([4]; iv, 1 mg/kg): 6.98 L/kg
clearance ([4]; iv, 1 mg/kg): 11.7 mL/min/kg
half-life ([4]; iv, 1 mg/kg): 1.03 h
AUC(0-inf) ([4]; po, 10 mg/kg): 4330 ng·h/mL
AUC(0-t) ([4]; po, 10 mg/kg): 4110 ng·h/mL
Cmax ([4]; po, 10 mg/kg): 1220 ng/mL
MRT inf ([4]; po, 10 mg/kg): 5.75 h
Tmax ([4]; po, 10 mg/kg): 0.67 h
bioavailability ([4]; po, 10 mg/kg): 33.3%
half-life ([4]; po, 10 mg/kg): 1.65 h
inhibition of CYP2C8 (in words) [5]: weakly inhibited CYP2C8
EC50 [6, 17]: 0.5 nM
EC50 [6, 18]: 0.06 nM

CN1C(=O)[C@@H](NC(=O)c2n[nH]c(Cc3ccccc3)n2)COc2ccccc21 [compound 2, GSK2982772, reference compound]
EC50 ([3]; read-out: EC50 L929 T + S): 8280 nM
EC50 ([3]; read-out: EC50 L929 TNFα): 1200 nM
EC50 [6, 17]: 3.9 nM
EC50 [6, 18]: 0.5 nM
phosphorylation cascade (Western blot), L929 [7]: inactive even at 1 μmol/L

C[C@@H](c1ccc(-n2cnc3c(N)ncnc32)cc1)N1CCc2nn(C)c(Cc3ccccc3)c2C1=O [compound 62, (S)-5-(1-(4-(6-Amino-9H-purin-9-yl)phenyl)ethyl)-3-benzyl-2-methyl-2,5,6,7-tetrahydro-4H-pyrazolo[4,3-c]pyridin-4-one]
phosphorylation levels of MLKL in mouse organs [8]: significantly suppressed
adverse effects during long-term treatment [9]: no adverse effects had been observed
colorectal stricture, splenomegaly and thymus hyperplasia symptoms in IBD mice [9]: significantly alleviated
diarrhea and weight loss symptoms in IBD mice ([9]; vs control group): significantly reduced diarrhea and weight loss symptoms
IC50 [1]: 730 nM
fold less potent against hRIPK3 than hRIPK1 ([1]; ratio of enzymatic IC50s): at least 200 fold
IC50 [2]: 3.5 nM
antiviral effects (SARS-CoV-2 N protein levels) [10]: very strong antiviral effects compared to reported RIPK1i
TNFα-induced activation of RIPK1 in mouse organs [11]: almost eliminated TNFα-induced activation of RIPK1 in mouse organs
RA symptoms (paw edema, erythema, joint stiffness) [12]: effectively eliminate most RA symptoms
bodyweight in RA mice [12]: without affecting the bodyweight
IC50 [13]: 634 nM
symptoms (hypothermia) in SIRS mice ([14]; 1 mpk (po)): almost eliminated the symptoms
survival in SIRS mice ([14]; 1 mpk (po), n = 7): protected all mice from the fatality
acute hypothermia in SIRS mice ([14]; 2 mpk (po)): completely mitigated the acute hypothermia
EC50 ([3]; read-out: EC50 L929 T + S): 1.3 nM
EC50 ([3]; read-out: EC50 L929 TNFα): 0.2 nM
activation of RIPK1 in SARS-CoV-2 infected human lung organoids [15]: completely abolished the activation of RIPK1
AUC(0-inf) ([4]; iv, 0.5 mg/kg): 476 ng·h/mL
AUC(0-t) ([4]; iv, 0.5 mg/kg): 471 ng·h/mL
MRT inf ([4]; iv, 0.5 mg/kg): 1.49 h
Vd ([4]; iv, 0.5 mg/kg): 0.94 L/kg
clearance ([4]; iv, 0.5 mg/kg): 10 mL/min/kg
half-life ([4]; iv, 0.5 mg/kg): 1.29 h
AUC(0-inf) ([4]; po, 5 mg/kg): 6520 ng·h/mL
AUC(0-t) ([4]; po, 5 mg/kg): 6500 ng·h/mL
Cmax ([4]; po, 5 mg/kg): 1980 ng/mL
MRT inf ([4]; po, 5 mg/kg): 2.81 h
Tmax ([4]; po, 5 mg/kg): 0.5 h
bioavailability ([4]; po, 5 mg/kg): 82.2%
half-life ([4]; po, 5 mg/kg): 3.86 h
EC50 [6, 17]: 0.1 nM
EC50 [6, 18]: 0.02 nM
phosphorylation cascade (Western blot), L929 ([7]; TNFα (40 ng/mL) and SM164 (25 nmol/L), 15 h, titration): almost completely blocked the phosphorylation cascade at 40 nmol/L
Tmax ([16]; po, 5 mg/kg): 0.5 h
bioavailability ([16]; po, 5 mg/kg): 34.1%
half-life ([16]; po, 5 mg/kg): 4.19 h
AUC(0-inf) ([16]; male, iv, 0.5 mg/kg): 397 ng·h/mL
AUC(0-t) ([16]; male, iv, 0.5 mg/kg): 390 ng·h/mL
MRT inf ([16]; male, iv, 0.5 mg/kg): 1.03 h
Vd ([16]; male, iv, 0.5 mg/kg): 0.77 L/kg
clearance ([16]; male, iv, 0.5 mg/kg): 13.3 mL/min/kg
half-life ([16]; male, iv, 0.5 mg/kg): 0.91 h
AUC(0-inf) ([16]; male, po, 5 mg/kg): 2250 ng·h/mL
AUC(0-t) ([16]; male, po, 5 mg/kg): 2200 ng·h/mL
Cmax ([16]; male, po, 5 mg/kg): 505 ng/mL
MRT inf ([16]; male, po, 5 mg/kg): 6.82 h
